Test results as given in ChEMBL document CHEMBL1140148, “Structure-activity studies on a series of a 2-aminopyrimidine-containing histamine H4 receptor ligands” (J Med Chem, 2008).
pKi: −log10 of the molar value.

How the values were obtained:
Rattus norvegicus [1] = assay: Plasma concentration in rat at 30 umol/kg, ip; format: ADME, organism-based; conditions: in vivo
Rattus norvegicus [2] = assay: Plasma concentration in rat at 100 umol/kg, ip; format: ADME, organism-based; conditions: in vivo
[3] = Protein binding in ip dosed rat plasma; format: ADME, organism-based; conditions: read-out: PPB (converted)
Rattus norvegicus [4] = assay: Plasma concentration in rat at 80 umol/kg, ip; format: ADME, organism-based; conditions: in vivo
Rattus norvegicus [5] = assay: Antiinflammatory activity against carrageenan-induced hyperalgesia in rat assessed as increase in paw withdrawal at 300 umol/kg, ip relative to control; format: functional
Rattus norvegicus [6] = assay: Plasma concentration in rat at 300 umol/kg, ip; format: ADME, organism-based; conditions: in vivo
[7] = Terminal volume of distribution in rat at 10 mg/kg, iv; format: ADME, organism-based; parameters: dose 10 mg/kg, route intravenous; conditions: in vivo, read-out: Vbeta
[8] = Terminal volume of distribution in mouse at 5 mg/kg, iv; format: ADME, organism-based; parameters: dose 5 mg/kg, route intravenous; conditions: in vivo, read-out: Vbeta
[9] = Cmax in rat at 10 mg/kg, iv; format: ADME, organism-based; parameters: dose 10 mg/kg, route intravenous; conditions: in vivo
[10] = Cmax in mouse at 5 mg/kg, iv; format: ADME, organism-based; parameters: dose 5 mg/kg, route intravenous; conditions: in vivo
[11] = Half life in rat at 10 mg/kg, iv; format: ADME, organism-based; parameters: dose 10 mg/kg, route intravenous; conditions: in vivo
[12] = Half life in mouse at 5 mg/kg, iv; format: ADME, organism-based; parameters: dose 5 mg/kg, route intravenous; conditions: in vivo
[13] = Tmax in rat at 10 mg/kg, po; format: ADME, organism-based; parameters: dose 10 mg/kg, route oral; conditions: in vivo
[14] = Tmax in mouse at 20 mg/kg, po; format: ADME, organism-based; parameters: dose 20 mg/kg, route oral; conditions: in vivo
[15] = Bioavailability in rat at 10 mg/kg, po; format: ADME, organism-based; conditions: in vivo
[16] = Bioavailability in mouse at 20 mg/kg, po; format: ADME, organism-based; conditions: in vivo
[17] = Cmax in rat at 10 mg/kg, po; format: ADME, organism-based; parameters: dose 10 mg/kg, route oral; conditions: in vivo
[18] = Cmax in mouse at 20 mg/kg, po; format: ADME, organism-based; parameters: dose 20 mg/kg, route oral; conditions: in vivo
[19] = Half life in rat at 10 mg/kg, po; format: ADME, organism-based; parameters: dose 10 mg/kg, route oral; conditions: in vivo
[20] = Half life in mouse at 20 mg/kg, po; format: ADME, organism-based; parameters: dose 20 mg/kg, route oral; conditions: in vivo
Histamine H3 receptor = Histamine H3 receptor (Homo sapiens, UniProt Q9Y5N1); assay: Binding affinity to human histamine H3 receptor
Chain of Histamine H3 receptor (Q9Y5N1 whole entry): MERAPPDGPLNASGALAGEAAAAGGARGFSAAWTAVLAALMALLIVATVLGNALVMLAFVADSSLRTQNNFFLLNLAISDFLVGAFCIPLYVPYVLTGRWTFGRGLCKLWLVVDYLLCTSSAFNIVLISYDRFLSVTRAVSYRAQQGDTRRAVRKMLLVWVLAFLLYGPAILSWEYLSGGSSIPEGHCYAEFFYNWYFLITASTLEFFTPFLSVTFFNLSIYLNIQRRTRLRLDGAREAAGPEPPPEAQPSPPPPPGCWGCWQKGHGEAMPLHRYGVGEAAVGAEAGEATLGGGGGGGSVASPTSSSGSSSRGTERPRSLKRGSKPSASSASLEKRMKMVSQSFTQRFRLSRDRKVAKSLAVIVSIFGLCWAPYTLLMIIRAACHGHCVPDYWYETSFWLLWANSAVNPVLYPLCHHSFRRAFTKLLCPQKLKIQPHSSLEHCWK

Mus musculus [21] = assay: Antiinflammatory activity in zymosan-induced peritonitis in sc dosed BALB/c mouse model assessed as decrease in myeloperoxidase activity in peritoneal lavage; format: functional
Mus musculus [22] = assay: Antiinflammatory activity in ip dosed CD1/ICR mouse assessed as reduction of clobenpropit-induced itching; format: functional
[23] = Plasma concentration in mouse at 25 umol/kg, ip after 30 mins; format: ADME, organism-based
Rattus norvegicus [24] = assay: Antiinflammatory activity against carrageenan-induced thermal hyperalgesia in rat assessed as increase in paw withdrawal at 100 umol/kg, ip relative to control; format: functional
Rattus norvegicus [25] = assay: Antiinflammatory activity against carrageenan-induced thermal hyperalgesia in ip dosed rat assessed as increase in paw withdrawal; format: functional

Q: With `CN1CCN(C(=O)c2cc3cc(Cl)ccc3[nH]2)CC1` [JNJ-7777120] as the compound, how does the Cp (Rattus norvegicus [1]) read?
A: The Cp was 432 ng/mL.

Q: And the Cp (Rattus norvegicus [2])?
A: The Cp was 1454 ng/mL.

Q: What about the fraction unbound [3] of the same compound?
A: The fraction unbound was 0.28.

Q: And the Cp (Rattus norvegicus [4])?
A: The Cp was 1200 ng/mL.

Q: And the Activity (Rattus norvegicus [5])?
A: The Activity was 96%.

Q: And the Cp (Rattus norvegicus [6])?
A: Its Cp is 4135 ng/mL.

Q: What about the Vd [7] of the same compound?
A: The Vd was 37 L/kg.

Q: What about the Vd [8] of the same compound?
A: The Vd was 24 L/kg.

Q: What about the Cmax [9] of the same compound?
A: Its Cmax is 1140 ng/mL.

Q: And the Cmax [10]?
A: The Cmax was 560 ng/mL.

Q: And the half-life [11]?
A: The half-life was 1.7 h.

Q: And the half-life [12]?
A: Its half-life is 0.7 h.

Q: And the Tmax [13]?
A: The Tmax was 0.25 h.

Q: What about the Tmax [14] of the same compound?
A: Its Tmax is 1.33 h.

Q: And the bioavailability [15]?
A: The bioavailability was 47%.

Q: And the bioavailability [16]?
A: Its bioavailability is 24%.

Q: What about the Cmax [17] of the same compound?
A: The Cmax was 220 ng/mL.

Q: What about the Cmax [18] of the same compound?
A: The Cmax was 140 ng/mL.

Q: What about the half-life [19] of the same compound?
A: The half-life was 2.5 h.

Q: What about the half-life [20] of the same compound?
A: The half-life was 1.4 h.

Q: What about the pKi (Histamine H3 receptor) of the same compound?
A: Its pKi is 5.65.

Q: What about the ED50 (Mus musculus [21]) of the same compound?
A: The ED50 was 61 µmol/kg.

Q: And the ED50 (Mus musculus [22])?
A: Its ED50 is 25 µmol/kg.

Q: What about the concentration at 0.5 h [23] of the same compound?
A: Its concentration at 0.5 h is 860 ng/mL.

Q: What about the Activity (Rattus norvegicus [24]) of the same compound?
A: The Activity was 49%.

Q: And the ED50 (Rattus norvegicus [25])?
A: The ED50 was 80 µmol/kg.
